Experimental data taken from patent US20150315188A1, “COMPOUNDS AND METHODS FOR TREATMENT OF HYPERTENSION” (MEDIVATION TECHNOLOGIES, INC., priority 2012, published 2015).

Tests used:
[1] = target: T1, Human adrenergic α2B receptor (Homo sapiens, UniProt P18089); experiment: β-Arrestin GPCR functional assay, adrenergic α2B (Protocol B); type: cell-based; conditions: for IC50: β-arrestin, antagonist vs nor-epinephrine EC80, read-out: IC50 Adrenergic α2B; for inhibition at 0.01 µM / inhibition at 0.03 µM / inhibition at 0.1 µM: read-out: Percentage inhibition, Adrenergic α2B; for inhibition at 0.03 µM: 30 nM compound; for inhibition at 0.1 µM: 0.1 μM compound
T1 sequence (P18089 1-450): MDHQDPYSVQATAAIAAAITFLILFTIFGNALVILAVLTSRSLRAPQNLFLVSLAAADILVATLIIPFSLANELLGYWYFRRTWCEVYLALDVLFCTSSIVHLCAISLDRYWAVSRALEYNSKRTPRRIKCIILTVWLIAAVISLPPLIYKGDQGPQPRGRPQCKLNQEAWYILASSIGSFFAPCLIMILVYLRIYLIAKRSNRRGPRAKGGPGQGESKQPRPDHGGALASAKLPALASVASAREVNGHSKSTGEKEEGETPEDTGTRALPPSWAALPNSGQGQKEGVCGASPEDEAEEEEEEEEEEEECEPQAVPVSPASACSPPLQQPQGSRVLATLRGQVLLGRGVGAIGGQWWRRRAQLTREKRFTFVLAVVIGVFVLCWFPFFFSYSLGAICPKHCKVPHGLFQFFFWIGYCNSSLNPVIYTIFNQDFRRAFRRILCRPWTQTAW
Method in brief: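 CHO cells overexpressing human α2B (PathHunter β-arrestin), 12,000 per well, 24 h at 37° C; compounds in 1% DMSO 30 min, then 50 nM norepinephrine (EC80) 90 min at 37° C.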

[2] = target: T1, Human adrenergic α2B receptor; experiment: Radioligand binding, adrenergic α2B (Protocol Group B); set-up: purchased Milipore (Millipore); conditions: for Percentage inhibition of ligand binding, Adrenergic α2B (10 nM) / inhibition at 0.01 µM: 10 nM compound; for Percentage inhibition of ligand binding, Adrenergic α2B (10 nM) / Percentage inhibition of ligand binding, Adrenergic α2B (30 nM) / Percentage inhibition of ligand binding, Adrenergic α2B (0.1 μM) / Ki / inhibition at 0.01 µM / inhibition at 0.03 µM / inhibition at 0.1 µM: Protocol Group B; for Percentage inhibition of ligand binding, Adrenergic α2B (10 nM): 0.01 µM; for Percentage inhibition of ligand binding, Adrenergic α2B (30 nM) / inhibition at 0.03 µM: 30 nM compound; for Percentage inhibition of ligand binding, Adrenergic α2B (30 nM): 0.03 µM; for Percentage inhibition of ligand binding, Adrenergic α2B (0.1 μM) / inhibition at 0.1 µM: 0.1 μM compound; for Ki: estimated Ki, read-out: Ki α2B; for inhibition at 0.01 µM: read-out: Percentage inhibition of ligand binding, Adrenergic α2B (10 nM); for inhibition at 0.03 µM: read-out: Percentage inhibition of ligand binding, Adrenergic α2B (30 nM); for inhibition at 0.0001 µM: 0.1 nM compound, read-out: Percentage inhibition of ligand binding, Adrenergic α2B, 0.1 nM; for inhibition at 0.00032 µM: 0.32 nM compound, read-out: Percentage inhibition of ligand binding, Adrenergic α2B, 0.32 nM; for inhibition at 0.001 µM: 1 nM compound, read-out: Percentage inhibition of ligand binding, Adrenergic α2B, 1 nM; for inhibition at 0.0032 µM: 3.2 nM compound, read-out: Percentage inhibition of ligand binding, Adrenergic α2B, 3.2 nM; for inhibition at 0.1 µM: read-out: Percentage inhibition of ligand binding, Adrenergic α2B (0.1 μM)
Method in brief: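 Recombinant human α2B receptor membranes incubated with compounds in 50 mM Tris-HCl pH 7.4, 5 mM MgCl2, 1 mM CaCl2, 0.2% BSA, 1% DMSO vehicle. Non-specific binding defined with 10 μM rauwolscine. Values are percent inhibition of specific binding or estimated Ki.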

[3] = target: T2, Human adrenergic α2A receptor (Homo sapiens, UniProt P08913); experiment: Radioligand binding, adrenergic α2A (Protocol Group B); set-up: purchased Milipore (Millipore); conditions: for Percentage inhibition of ligand binding, Adrenergic α2A (0.1 μM) / inhibition at 0.1 µM: 0.1 μM compound; for Percentage inhibition of ligand binding, Adrenergic α2A (0.1 μM) / Percentage inhibition of ligand binding, Adrenergic α2A (0.3 μM) / Ki / inhibition at 0.3 µM / inhibition at 0.1 µM: Protocol Group B; for Percentage inhibition of ligand binding, Adrenergic α2A (0.3 μM) / inhibition at 0.3 µM: 0.3 μM compound; for Ki: estimated Ki; for inhibition at 0.3 µM: read-out: Percentage inhibition of ligand binding, Adrenergic α2A (0.3 μM); for inhibition at 0.0032 µM: 3.2 nM compound, read-out: Percentage inhibition of ligand binding, Adrenergic α2A, 3.2 nM; for inhibition at 0.0032 µM / inhibition at 0.01 µM / inhibition at 0.03 µM / inhibition at 0.32 µM / inhibition at 1 µM / inhibition at 3.2 µM / inhibition at 10 µM: concentration series; for inhibition at 0.01 µM: 10 nM compound, read-out: Percentage inhibition of ligand binding, Adrenergic α2A, 10 nM; for inhibition at 0.03 µM: 0.03 μM compound, read-out: Percentage inhibition of ligand binding, Adrenergic α2A, 0.03 μM; for inhibition at 0.1 µM: read-out: Percentage inhibition of ligand binding, Adrenergic α2A (0.1 μM); for inhibition at 0.32 µM: 0.32 μM compound, read-out: Percentage inhibition of ligand binding, Adrenergic α2A, 0.32 μM; for inhibition at 1 µM: 1 μM compound, read-out: Percentage inhibition of ligand binding, Adrenergic α2A, 1 μM; for inhibition at 3.2 µM: 3.2 μM compound, read-out: Percentage inhibition of ligand binding, Adrenergic α2A, 3.2 μM; for inhibition at 10 µM: 10 μM compound, read-out: Percentage inhibition of ligand binding, Adrenergic α2A, 10 μM
T2 sequence (P08913 1-465): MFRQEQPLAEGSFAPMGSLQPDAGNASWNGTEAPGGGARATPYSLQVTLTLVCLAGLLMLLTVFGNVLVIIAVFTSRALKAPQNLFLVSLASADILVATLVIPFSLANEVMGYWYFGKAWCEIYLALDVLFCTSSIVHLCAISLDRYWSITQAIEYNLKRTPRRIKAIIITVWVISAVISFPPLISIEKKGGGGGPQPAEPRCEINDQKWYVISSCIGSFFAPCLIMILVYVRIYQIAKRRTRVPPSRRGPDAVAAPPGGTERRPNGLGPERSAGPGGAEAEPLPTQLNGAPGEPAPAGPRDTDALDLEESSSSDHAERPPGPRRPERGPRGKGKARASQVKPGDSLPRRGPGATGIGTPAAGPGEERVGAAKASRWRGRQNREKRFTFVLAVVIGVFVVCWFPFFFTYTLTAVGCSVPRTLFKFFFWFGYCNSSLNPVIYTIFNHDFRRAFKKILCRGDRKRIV
Method in brief: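 Membranes from recombinant cells expressing the receptor, in 50 mM Tris-HCl pH 7.4 with 5 mM MgCl2, 1 mM CaCl2, 0.2% BSA; compounds incubated with 2 nM [^3H]MK-912 for 60 min at 25° C. Nonspecific binding defined by 10 μM rauwolscine; filtration, counting; percent inhibition of specific binding, or estimated Ki.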

[4] = target: T2, Human adrenergic α2A receptor; experiment: β-Arrestin GPCR functional assay, adrenergic α2A (Protocol B); type: cell-based; conditions: for IC50: β-arrestin, antagonist vs nor-epinephrine EC80; for inhibition at 0.1 µM: 0.1 μM compound; for inhibition at 0.1 µM / inhibition at 0.3 µM: nor-epinephrine at EC80 (270 nM), read-out: Percentage inhibition, Adrenergic α2A; for inhibition at 0.3 µM: 0.3 μM compound
Method in brief: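 PathHunter CHO cells overexpressing human α2A receptor were preincubated with compounds (1% DMSO final) for 30 min at 37 °C, then stimulated 90 min with norepinephrine at EC80 (270 nM). β-Arrestin recruitment read by chemiluminescence after 60 min detection; reported as % inhibition or IC50.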

[5] = 10 nM compound, nor-epinephrine at EC80 (50 nM)
[6] = nor-epinephrine at EC80 (50 nM)

Row | SMILES | IC50 [1] [nM] | Percentage inhibition of ligand binding, Adrenergic α2B (10 nM) [2] [%] | Percentage inhibition of ligand binding, Adrenergic α2B (30 nM) [2] [%] | Ki [2] [nM] | Percentage inhibition of ligand binding, Adrenergic α2A (0.1 μM) [3] [%] | Percentage inhibition of ligand binding, Adrenergic α2A (0.3 μM) [3] [%] | Ki [3] [nM] | IC50 [4] [nM] | inhibition at 0.01 µM [2] [%] | inhibition at 0.03 µM [2] [%] | inhibition at 0.3 µM [3] [%] | inhibition at 0.1 µM [2] [%] | also measured
1 | CCOC(Cn1c2c(c3cc(C)ccc31)CN(C)CC2)c1ccncc1 (single isomer, unassigned) [43b] | 91 | 71 | 89 | 2.1 | 14 | 28 | 374 | 7340 | – | – | – | – | Percentage inhibition of ligand binding, Adrenergic α2B (0.1 μM) [2]: 98%
2 | Cc1ccc2c(c1)c1c(n2CC(C)(O)c2ccc(F)nc2)CCN2CCCC12 (single isomer, unassigned) [6a] | 24 | – | – | 1.4 | – | – | 55 | 1790 | – | – | – | – | –
3 | Cc1cc(Cl)c2c(c1)c1c(n2CC(C)(O)c2ccncc2)CCN2CCCC12 (single isomer, unassigned) [91b] | 18.7 | 95 | 97 | 0.93 | 67 | 86 | 28.4 | 1780 | – | – | – | – | –
4 | OC(Cn1c2c(c3cc(Cl)cc(F)c31)C1CCCN1CC2)c1ccncc1 (single isomer, unassigned) [135a] | 53.1 | – | – | 2.95 | 57 | – | 66.1 | 4350 | 79 | 93 | 77 | – | –
5 | CCCOC(Cn1c2c(c3cc(C)ccc31)CN(C)CC2)c1ccncc1 (single isomer, unassigned) [42b] | 41 | 86 | 97 | 1.3 | 32 | 48 | 154 | 5220 | – | – | – | – | Percentage inhibition of ligand binding, Adrenergic α2B (0.1 μM) [2]: 100%
6 | OC(Cn1c2c(c3cc(F)ccc31)C1CCCN1CC2)c1ccncc1 (single isomer, unassigned) [18b] | 13 | – | – | 1.03 | – | – | 55.9 | 2780 | 94 | 97 | 71 | 100 | inhibition at 0.01 µM [1, 5]: 37%; inhibition at 0.03 µM [1, 6]: 94%; inhibition at 0.1 µM [1, 6]: 103%; inhibition at 30 pM ([2]; 0.03 nM compound, concentration series, read-out: Percentage inhibition of ligand binding, Adrenergic α2B, 0.03 nM): 19%; inhibition at 0.0001 µM ([2]; concentration series): 6%; inhibition at 0.00032 µM ([2]; concentration series): 14%; inhibition at 0.001 µM ([2]; concentration series): 29%; inhibition at 0.0032 µM ([2]; concentration series): 78%; inhibition at 0.0032 µM [3]: 8%; inhibition at 0.01 µM [3]: 12%; inhibition at 0.03 µM [3]: 27%; inhibition at 0.1 µM [3]: 45%; inhibition at 0.32 µM [3]: 76%; inhibition at 1 µM [3]: 90%; inhibition at 3.2 µM [3]: 96%; inhibition at 10 µM [3]: 99%; inhibition at 0.1 µM [4]: 14%; inhibition at 0.3 µM [4]: 18%
7 | CCOC(Cn1c2c(c3cc(C)ccc31)CN(C)CC2)c1ccncc1 (single isomer, unassigned) [43a] | 119 | – | – | 2.8 | 46 | 63 | 50 | 3570 | 64 | 85 | – | 96 | –
8 | Cc1cc2c3c(n(CC(C)(O)c4ccncc4)c2cc1Cl)CCN1CCCC31 (single isomer, unassigned) [50a] | 14 | – | – | 0.75 | – | – | 6.7 | 713 | 95 | 99 | 83 | 100 | inhibition at 0.1 µM [3]: 72%
9 | CC(O)(Cn1c2c(c3cc(Cl)cc(F)c31)C1CCCN1CC2)c1ccncc1 (single isomer, unassigned) [52b] | 49 | 94 | 96 | 0.71 | 72 | 78 | 21.7 | 992 | – | – | – | – | Percentage inhibition of ligand binding, Adrenergic α2B (0.1 μM) [2]: 99%
10 | Cc1ccc2c(c1)c1c(n2CC(C)(O)c2ccncc2)CCN2CCCC12 (single isomer, unassigned) [13a] | 30 | – | – | 1.85 | – | – | 50 | 2240 | – | – | – | – | Percentage inhibition, Adrenergic α2B [1, 5]: 9%; inhibition at 0.03 µM [1, 6]: 29%; inhibition at 0.1 µM [1, 6]: 88%; inhibition at 0.1 µM [4]: 14%; inhibition at 0.3 µM [4]: 21%
11 | Cc1ccc2c(c1)c1c(n2CC(O)c2ccncc2)CC[N+]2([O-])CCCC12 (centres unmarked) [compound 23, 7-(2-hydroxy-2-(pyridin-4-yl)ethyl)-10-methyl-1,2,3,4,5,6,7,11c-octahydroindolizino[7,8-b]indole 4-oxide] | 382 | – | – | 2.24 | – | – | 20.8 | – | 65 | 88 | 64 | 92 | inhibition at 0.01 µM [1, 5]: 10%; inhibition at 0.03 µM [1, 6]: 12%; inhibition at 0.1 µM [1, 6]: 27%; inhibition at 0.0001 µM ([2]; concentration series): 13%; inhibition at 0.00032 µM ([2]; concentration series): 5%; inhibition at 0.001 µM ([2]; concentration series): 2%; inhibition at 0.0032 µM ([2]; concentration series): 40%; inhibition at 0.32 µM ([2]; 0.32 μM compound, concentration series, read-out: Percentage inhibition of ligand binding, Adrenergic α2B, 0.32 μM): 105%; inhibition at 0.0032 µM [3]: 14%; inhibition at 0.01 µM [3]: 21%; inhibition at 0.03 µM [3]: 37%; inhibition at 0.1 µM [3]: 55%; inhibition at 0.32 µM [3]: 67%; inhibition at 1 µM [3]: 76%; inhibition at 3.2 µM [3]: 88%; inhibition at 10 µM [3]: 92%; inhibition at 0.1 µM [4]: 1%; inhibition at 0.3 µM [4]: 1%
